For data set [1] the following is noted: 100 kPa, Liquid; for speed of sound: Frequency=3 MHz, Single path-length method; for mass density: Vibrating tube method.
The nature of data set [2]: xn = mol fraction of the nth substance listed. The conditions noted are these: 100 kPa, Liquid, x2 = 0; for speed of sound: Frequency=3 MHz, Single path-length method; for mass density: Vibrating tube method.

Structures are written as SMILES. Numbers after ± are expanded uncertainties.

As to `CCCC(C)O` (centres undefined) [pentan-2-ol], the speed of sound in data set [1] (293.15 K) turned out to be 1250.3 ± 6.5 m/s; in data set [1] (298.15 K), 1232.4 ± 6.5 m/s; in data set [1] (303.15 K), 1214.1 ± 6.5 m/s; in data set [1] (308.15 K), 1195.7 ± 6.5 m/s. For the same molecule, the mass density in data set [1] (293.15 K) came to 809.399 ± 1.5 kg/m3; in data set [1] (298.15 K), 805.37 ± 1.5 kg/m3; in data set [1] (303.15 K) it was 801.27 ± 1.5 kg/m3; in data set [1] (308.15 K), 797.08 ± 1.5 kg/m3.

`CCC(C)O` (centres undefined) [butan-2-ol] + CCCCNCCCC: the speed of sound in data set [2] (293.15 K) is reported as 1229.9 ± 6.2 m/s; in data set [2] (298.15 K), 1212.1 ± 6.2 m/s; in data set [2] (303.15 K), 1194.1 ± 6.2 m/s; in data set [2] (308.15 K), 1176 ± 6.2 m/s. Also, the mass density in data set [2] (293.15 K) is reported as 806.952 ± 1.4 kg/m3; in data set [2] (298.15 K) it was 802.847 ± 1.4 kg/m3; in data set [2] (303.15 K), 798.651 ± 1.4 kg/m3; in data set [2] (308.15 K) it was 794.363 ± 1.4 kg/m3.

On to `CCC(C)O` (centres undefined) [butan-2-ol] + CC(C)NC(C)C, for which the speed of sound in data set [2] (293.15 K) is 1229.9 ± 6.2 m/s; in data set [2] (298.15 K), 1212.1 ± 6.2 m/s; in data set [2] (303.15 K) it was 1194.1 ± 6.2 m/s; in data set [2] (308.15 K), 1176 ± 6.2 m/s. Besides, the mass density worked out at 806.952 ± 1.4 kg/m3 in data set [2] (293.15 K), 802.847 ± 1.4 kg/m3 in data set [2] (298.15 K), 798.651 ± 1.4 kg/m3 in data set [2] (303.15 K) and 794.363 ± 1.4 kg/m3 in data set [2] (308.15 K).

For the molecule `CCCC(C)O` (centres undefined) [pentan-2-ol] + CCCCNCCCC, the speed of sound in data set [2] (293.15 K) is 1250.3 ± 6.5 m/s; in data set [2] (298.15 K), 1232.4 ± 6.5 m/s; in data set [2] (303.15 K) it was 1214.1 ± 6.5 m/s; in data set [2] (308.15 K) it was 1195.7 ± 6.5 m/s. Further, the mass density was 809.399 ± 1.5 kg/m3 in data set [2] (293.15 K), 805.37 ± 1.5 kg/m3 in data set [2] (298.15 K), 801.27 ± 1.5 kg/m3 in data set [2] (303.15 K) and 797.08 ± 1.5 kg/m3 in data set [2] (308.15 K).

Regarding `CCCCNCCCC` [dibutylamine], the speed of sound turned out to be 1260.1 ± 6.3 m/s in data set [1] (293.15 K), 1240.1 ± 6.3 m/s in data set [1] (298.15 K), 1220.3 ± 6.3 m/s in data set [1] (303.15 K) and 1200.6 ± 6.3 m/s in data set [1] (308.15 K). The mass density came out at 759.579 ± 1.4 kg/m3 in data set [1] (293.15 K), 755.48 ± 1.4 kg/m3 in data set [1] (298.15 K), 751.374 ± 1.4 kg/m3 in data set [1] (303.15 K) and 747.268 ± 1.4 kg/m3 in data set [1] (308.15 K).

Turning to `CCC(C)O` (centres undefined) [butan-2-ol], the speed of sound in data set [1] (293.15 K) is 1229.9 ± 6.2 m/s; in data set [1] (298.15 K), 1212.1 ± 6.2 m/s; in data set [1] (303.15 K), 1194.1 ± 6.2 m/s; in data set [1] (308.15 K), 1176 ± 6.2 m/s. Further, the mass density came to 806.952 ± 1.4 kg/m3 in data set [1] (293.15 K), 802.847 ± 1.4 kg/m3 in data set [1] (298.15 K), 798.651 ± 1.4 kg/m3 in data set [1] (303.15 K) and 794.363 ± 1.4 kg/m3 in data set [1] (308.15 K).

As to `CC(C)NC(C)C` [diisopropylamine], the speed of sound in data set [1] (293.15 K) was found to be 1116.4 ± 6.3 m/s; in data set [1] (298.15 K) it was 1093.8 ± 6.3 m/s; in data set [1] (303.15 K), 1071.1 ± 6.3 m/s; in data set [1] (308.15 K), 1043.5 ± 6.3 m/s. The mass density in data set [1] (293.15 K) turned out to be 717.305 ± 1.4 kg/m3; in data set [1] (298.15 K) it was 712.441 ± 1.4 kg/m3; in data set [1] (303.15 K) it was 707.55 ± 1.4 kg/m3; in data set [1] (308.15 K), 702.661 ± 1.4 kg/m3.

As for `CCCC(C)O` (centres undefined) [pentan-2-ol] + CC(C)NC(C)C, the speed of sound in data set [2] (293.15 K) came out at 1250.3 ± 6.5 m/s; in data set [2] (298.15 K), 1232.4 ± 6.5 m/s; in data set [2] (303.15 K), 1214.1 ± 6.5 m/s; in data set [2] (308.15 K) it was 1195.7 ± 6.5 m/s. The mass density is 809.399 ± 1.5 kg/m3 in data set [2] (293.15 K), 805.37 ± 1.5 kg/m3 in data set [2] (298.15 K), 801.27 ± 1.5 kg/m3 in data set [2] (303.15 K) and 797.08 ± 1.5 kg/m3 in data set [2] (308.15 K).

For orientation: speed of sound means how fast a sound wave travels through the sample. Usually mass density stands for the mass of a sample divided by its volume.
